Legend:
MMP-2 = biological target: T1, MMP-2 (Homo sapiens, UniProt P08253); assay: MMP-2 spectrofluorometric enzyme activity assay; type: biochemical; conditions: 50 μM compound
T1 construct: made in house; host or cells: Sf21 insect cells, baculovirus (pBlueBac4.5)
T1 sequence (P08253 110-660): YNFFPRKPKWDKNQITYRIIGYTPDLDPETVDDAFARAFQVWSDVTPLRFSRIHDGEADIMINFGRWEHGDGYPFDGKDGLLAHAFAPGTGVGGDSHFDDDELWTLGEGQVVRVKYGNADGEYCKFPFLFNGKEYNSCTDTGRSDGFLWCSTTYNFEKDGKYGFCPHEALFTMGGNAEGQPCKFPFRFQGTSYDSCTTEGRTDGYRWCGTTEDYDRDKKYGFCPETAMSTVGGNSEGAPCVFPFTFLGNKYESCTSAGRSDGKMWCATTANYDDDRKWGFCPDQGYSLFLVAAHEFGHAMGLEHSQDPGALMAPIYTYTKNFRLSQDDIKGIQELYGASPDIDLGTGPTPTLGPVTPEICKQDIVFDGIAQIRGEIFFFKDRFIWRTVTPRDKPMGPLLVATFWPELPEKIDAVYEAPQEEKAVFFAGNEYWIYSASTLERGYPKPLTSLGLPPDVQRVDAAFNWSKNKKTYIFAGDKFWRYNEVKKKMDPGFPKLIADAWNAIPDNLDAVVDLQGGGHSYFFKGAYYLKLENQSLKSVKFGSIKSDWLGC
Method: (§1) MMP-1, MMP-2, MMP-9 and MMP-13 were cloned and prepared from insect cells (Sf21 insect cell) by using a Baculovirus system.
(§2) Each cDNA for corresponding MMPs was cloned to a pBlueBac4.5 transfer vector (Invitrogen, Cat no. V1995-20), and then transfected to Sf21 cells with a Bac-N-Blue Transfection Kit (Invitrogen, Cat no. K855-01). Sf21 cells were incubated with a TNM-FH (Sigma, St. Louis, Mo., U.S.A) media containing 10% fetal bovine serum at 27° C., then harvested and re-suspended at a concentration of 10^7 cell/Ml. The cell suspension was incubated with a virus containing the cloned gene for 1 hr at room temperature. Infected Sf21 cells were grown for 72 hrs and the medium was recovered, and the MMP was purified. MMP-2 (GENEBANK No. XM—048244) and MMP-9 (GENEBANK No. XM—009491) were recovered from a gelatin-sepharose affinity column (Sigma, G5384) by eluting with 5% DMSO-containing buffer. MMP-1 (GENEBANK NO. XM—040735) and MMP-13 (GENEBANK NO. NM_002427) were purified with SP-sepharose column (Pharmacia, 17-02729-01) chromatography.
(§3) In order to investigate MMP inhibition by chalcone or its derivatives, MMP enzyme activity was assayed by a spectrofluorometric method using Perkin-Elmer LS50B.
(§4) Purified MMP-1, MMP-2, MMP-9 and MMP-13 were used after activation with 1 mM APMA before assay.
(§5) The substrate for MMP-1 was 2,4-dinitrophenyl-Pro-Leu-Ala-Leu-Trp-Ala-Arg-OH (Calbiochem). 2,4-dinitrophenyl-Pro-Leu-Met-Trp-Ser-Arg-OH (Calbiochem) was used for MMP-2 and MMP-9 activity assay. As a substrate for MMP-13, MCA-Pro-Cha-Gly-Nva-His-Ala-Dpa-NH2 (Calbiochem) was used [MCA=methyl coumarylamide; Cha=L-cyclohexylalanine; Nva=L-norvaline; Dpa=3-(2,4-dinitrophenyl)-L-2,3-diaminoproprionic acid].
(§6) As a control, 2 Ml of reaction buffer (50 mM Tricine, pH 7.5, 10 mM CaCl2, 200 mM NaCl) comprising DMSO, 10 nM of enzyme and 10 μM of substrate was prepared in a cuvette. Fluorescence intensity was measured for 5-10 min at room temperature with a spectrofluorometer.
(§7) 50 μM Chalcone or its derivatives were added to a reaction buffer containing a substrate and enzyme, and fluorescence intensity was measured in the same manner.

MMP-13 = biological target: T2, MMP-13 (Homo sapiens, UniProt P45452); assay: MMP-13 spectrofluorometric enzyme activity assay; type: biochemical; conditions: 50 μM compound
T2 construct: made in house; host or cells: Sf21 insect cells, baculovirus (pBlueBac4.5)
Method: as §1, §2, §3, §4, §5, §6, §7

TPA-induced ear edema = TPA-induced ear edema model; type: in vivo, ICR mouse; conditions: topical 5% in acetone (indomethacin 0.5 mg/ear), 4 hours after TPA; for Δ Ear thickness (um ± S.D): TPA control 176 ± 35
Method: To observe the anti-inflammatory effects of chalcone or its derivatives edema was induced in the ear by topical application of 10 ul of TPA (Tetradecanoylphorbol acetate) in acetone (2.5 ug/ear) to both the inner and outer surface of one ear of each 6-week-old ICR mouse. 5% of Chalcone or its derivatives diluted with acetone were applied separately to each ear topically immediately after TPA. The reference drug, indomethacin (0.5 mg/ear), was administered as a positive control. Ear thickness was measured before and 4 hours after treatment with the irritant using a micrometer (Mitutoyo Co.). Ear thickness was expressed as the mean of the difference between thickness before and after challenge. Inhibition ratio percentage of edema was expressed as the reduction in thickness with respect to the control treated only with TPA. As shown in FIG. 6 and Table 2, chalcone or its derivatives suppressed the TPA-induced ear edema.

[1] = tested on: human umbilical vein endothelial cells (HUVECs); assay: Tube formation of HUVEC on Matrigel; type: cell-based; conditions: 50 μM, 8-16 hrs
Source text: The effect of chalcone or its derivatives on human endothelial cells was investigated to evaluate the biological effect of chalcones as MMP inhibitors. Since MMPs are responsible for the degradation of extracellular matrix, chalcone or its derivatives can inhibit the formation of tubular network of vessel, which represent migration and differentiation of endothelial cell. Blood vessel endothelial cells, human umbilical vein endothelial cells (HUVECs), were isolated from freshly obtained cords after cesarean section according to Grants' method (Grants D. S., et al., Cell, 58, pp933-943, 1989). They were identified by immunocytochemical staining with anti-Factor VIII antibody. HUVECs cultured on Matrigel (BD Bioscience, Bedford, Mass., USA) were treated with 50 μM of chalcone or its derivatives, and further incubated at 37° C. for 8-16 hrs. As a control, the procedure was repeated with the solvent of the above compounds.

Compound	MMP-2 inhibition (% inhibition) (MMP-2)	MMP-13 inhibition (% inhibition) (MMP-13)	Inhibition ratio (%) of ear edema (TPA-induced ear edema)	Δ Ear thickness (um ± S.D) (TPA-induced ear edema)	Tubular (microvascular) network formation of HUVEC [1]
O=C(C=Cc1ccccc1O)c1ccccc1 [2-hydroxy chalcone, 2-hydroxychalcone (1-phenyl-3-(2-hydroxyphenyl)prophenone)]	90.4 % inhibition	89.9 % inhibition	58.0%	74 ± 20 um	–
COc1ccc(C(=O)C=Cc2ccccc2)c(OC)c1 [2′,4′-dimethoxy chalcone, 2′,4′-dimethoxychalcone (1-(2,4-dimethoxyphenyl)-3-phenylprophenone)]	92.5 % inhibition	83.4 % inhibition	–	–	–
O=C(C=Cc1ccc(O)cc1)c1ccccc1 [4-hydroxy chalcone, 4-hydroxychalcone (1-phenyl-3-(4-hydroxyphenyl)prophenone)]	95.9 % inhibition	94.5 % inhibition	–	–	–
COc1ccc(C=CC(=O)c2ccccc2)cc1 [4-methoxy chalcone, 4-methoxychalcone (1-phenyl-3-(4-methoxyphenyl)prophenone)]	92.7 % inhibition	83.9 % inhibition	56.2%	77 ± 19 um	–
COc1ccc(C(=O)C=Cc2ccccc2)cc1 [4′-methoxy chalcone, 4′-methoxychalcone (1-(4-methoxyphenyl)-3-phenylprophenone)]	99.1 % inhibition	86.8 % inhibition	40.9%	104 ± 21 um	microvascular network was disconnected
COc1ccc2c(c1)c(CC(=O)O)c(C)n2C(=O)c1ccc(Cl)cc1 [Indomethacin, reference compound]	–	–	72.7%	48 ± 25 um	–
O=C(CCc1ccc(O)cc1)c1c(O)cc(O)cc1O [Phloretin]	87.2 % inhibition	77.0 % inhibition	–	–	–

Source: US7572831B2, “Composition containing chalcone” (Angiolab, Inc., priority 2002, dated 2009)
